Biological target: Serotonin N-acetyltransferase (Ovis aries) (UniProt Q29495)
Experiment: AANAT activity was measured using a spectrophotometric assay in which the enzymatic product CoASH concentration were determined indirectly by monitoring its reaction product with DTNB at 412nm.
Conditions: pH 6.8

Chain of Serotonin N-acetyltransferase (Ovis aries) (Q29495 whole entry, looked up): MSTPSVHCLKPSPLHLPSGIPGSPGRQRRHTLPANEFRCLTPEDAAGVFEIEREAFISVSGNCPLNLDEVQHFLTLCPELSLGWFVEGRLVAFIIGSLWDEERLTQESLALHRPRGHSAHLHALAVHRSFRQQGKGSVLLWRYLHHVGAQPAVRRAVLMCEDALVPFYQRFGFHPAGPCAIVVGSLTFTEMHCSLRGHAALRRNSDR

Ki [nM] | Compound
360 | CC(C)(COP(=O)(O)OP(=O)(O)OC[C@H]1OC(n2cnc3c(N)ncnc32)[C@@H](O)[C@@H]1OP(=O)(O)O)[C@@H](O)C(=O)NCCC(=O)NCCSCCCCCc1c[nH]c2ccccc12 (some centres undefined) [AANAT bisubstrate analog, 4]
310 | CC(C)(COP(=O)(O)OP(=O)(O)OC[C@H]1OC(n2cnc3c(N)ncnc32)[C@@H](O)[C@@H]1OP(=O)(O)O)[C@@H](O)C(=O)NCCC(=O)NCCSCCCCc1c[nH]c2ccccc12 (some centres undefined) [AANAT bisubstrate analog, 5]
840 | CC(C)(COP(=O)(O)OP(=O)(O)OC[C@H]1OC(n2cnc3c(N)ncnc32)[C@@H](O)[C@@H]1OP(=O)(O)O)[C@@H](O)C(=O)NCCC(=O)NCCSCCCc1c[nH]c2ccccc12 (some centres undefined) [AANAT bisubstrate analog, 6]
5840 | CC(C)(COP(=O)(O)OP(=O)(O)OC[C@H]1OC(n2cnc3c(N)ncnc32)[C@@H](O)[C@@H]1OP(=O)(O)O)[C@@H](O)C(=O)NCCC(=O)NCCSCCCNCCc1c[nH]c2ccccc12 (some centres undefined) [AANAT bisubstrate analog, 7]
